Here are results for 42 compounds from US20030203975A1, “Anti-cancer agents” (priority 1998, published 2003).

Counter-ions that a name gives are not always drawn.

Tested on in the first data set: not given
Assay: not given
Conditions: not given
Compound `CC(C)(C)OC(=O)NCC(=O)OCCCNc1ccc(O)c2c1C(=O)c1c(O)cccc1C2=O` showed a melting point of 152 °C.

Compound `C[C@@H](NC(=O)OC(C)(C)C)C(=O)OCCCNc1cccc2c1C(=O)c1ccccc1C2=O` yielded a melting point of 58 °C.

`CC(C)(C)OC(=O)N[C@H](Cc1ccccc1)C(=O)OCCCNc1cccc2c1C(=O)c1ccccc1C2=O` showed a melting point of 168 °C.

As for `C[C@@H](NC(=O)OC(C)(C)C)C(=O)OCCCCNc1cccc2c1C(=O)c1ccccc1C2=O` [Example 44, 1-[4-(N-tertiarybutoxycarbonyl-D-alanyloxy)butylamino] anthracene-9,10-dione], the melting point was found to be 100 °C.

`CC(C)(C)OC(=O)N1CCC[C@H]1C(=O)OCCCNc1cccc2c1C(=O)c1ccccc1C2=O`: the melting point was 121 °C.

With `C[C@H](NC(=O)OC(C)(C)C)C(=O)OCCCCNc1cccc2c1C(=O)c1ccccc1C2=O` [Example 42, 1-[4-(N-tertiarybutoxycarbonyl-L-alanyloxy)butylamino] anthracene-9,10-dione], the melting point was 102 °C.

Take `CC[C@H](NC(=O)OC(C)(C)C)C(=O)OCCCCNc1cccc2c1C(=O)c1ccccc1C2=O`: the melting point amounted to 58 °C.

In the case of `C[C@@H](C(=O)OCCCCNc1cccc2c1C(=O)c1ccccc1C2=O)N(C)C(=O)OC(C)(C)C`, the melting point was 62 °C.

In turn, `CC(C)(C)OC(=O)N1CCC[C@@H]1C(=O)OCCCNc1cccc2c1C(=O)c1ccccc1C2=O` registered a melting point of 120 °C.

As for `CN(CC(=O)OCCCCNc1cccc2c1C(=O)c1ccccc1C2=O)C(=O)OC(C)(C)C` [Example 82, 1-[4-(N-tertiarybutoxycarbonylsarcosyloxy)butylamino]anthracene-9,10-dione], the melting point is 90 °C.

`CC(C)C[C@H](NC(=O)OC(C)(C)C)C(=O)NCC(=O)OCCCNc1cccc2c1C(=O)c1ccccc1C2=O` showed a melting point of 86 °C.

`CC(C)(C)OC(=O)NCC(=O)OCCCNc1ccc(O)c2c1C(=O)c1ccccc1C2=O` yielded a melting point of 124 °C.

Take `C[C@H](NC(=O)OC(C)(C)C)C(=O)OCCCNc1cccc2c1C(=O)c1ccccc1C2=O`: the melting point amounted to 60 °C.

The subject of a further data set is MAC 15A adenocarcinoma of the colon. The data set is described as follows: In vitro chemosensitivity against MAC 15A adenocarcinoma (MTT assay). The class given is cell-based. Conditions: 96 hours continuous exposure. On the procedure: In Vitro Activity Against MAC 15A Adenocarcinoma.
MAC 15A cells were grown in RPMI 1640 medium supplemented with 10% foetal calf serum containing a 1% antibiotic mixture under standard tissue culture conditions and were maintained at 37° C. in a humidified atmosphere of 5% CO2 in air. Cells were harvested from a stock culture in exponential growth phase and plated in 96-well flat-bottomed plates to achieve a final density of 2×10^3 cells per well. After 2 hours incubation medium was replaced with either fresh medium containing 0.5% DMSO (control) or medium containing test compound dissolved in DMSO at a concentrations from 10 mM to 1 nM. Chemosensitivity was assessed using MTT assay by the method of Plumb et al Cancer Research 49 (1989) 4435-4440.
Following 96 hours continuous exposure to drug at 37° C. cells were incubated with fresh drug-free medium immediately prior to addition of MTT solution (5 mg/ml). Medium and MTT were removed after 4 hours and 150 μl of DMSO was added. For each plate the absorbance of the resulting solution was measured at the analytical wavelength 550 nm for formazan product, using a Labsystem Mutiskan. IC50 values were obtained from growth curves of drug concentration against % survival and are expressed in μm.
A general note: Formazan colour is commonly taken as a measure of viable cells.
Regarding `C[C@H](N)C(=O)OCC(C)(C)Nc1cccc2c1C(=O)c1ccccc1C2=O` [Example 99, 2-[(9,10-dioxoanthryl)amino]-2-methylpropyl (2S)-2-amino propanoate trifluoroacetate], the IC50 came to 35 µM.

`C[C@H](N)C(=O)OC1CCN(c2cccc3c2C(=O)c2ccccc2C3=O)CC1` [Example 117, 1-(9,10-dioxoanthryl)-4-piperidyl-(2S)-2-aminopropanoate trifluoro-acetate] registered an IC50 of 14 µM.

Compound “(2S)-2-[(9,10-dioxoanthryl)amino]propyl (2S)-2-propanoate trifluoroacetate [Example 119]” gave an IC50 of 5.5 µM.

`N[C@@H](CCCNC(=O)OCc1ccccc1)C(=O)OCCCNc1cccc2c1C(=O)c1ccccc1C2=O` [Example 71, 1-[3-(N-δ-benzyloxycarbonyl-L-ornithyloxy)propylaminol]anthracene-9,10-dione trifluoroacetate] displayed an IC50 of 2.4 µM. This IC50 is about 2.3-fold lower than that of the compound before.

Compound `NCC(=O)N1CCC[C@H]1C(=O)OC[C@H](Cc1ccccc1)Nc1ccc(O)c2c1C(=O)c1c(O)cccc1C2=O` [Example 135, (2S)-2-[(4,8-dihydroxy-9,10-dioxoanthryl)amino]-3-phenylpropyl (2S) -1-(2-aminoacetyl)pyrrolidine-2-carboxylate trifluoroacetate] yielded a half-maximal inhibitory concentration (IC50) of 2.5 µM.

Turning to `C[C@H](N)C(=O)OCCc1ccc(Nc2cccc3c2C(=O)c2ccccc2C3=O)cc1` [Example 103], the IC50 is 4.7 µM.

In turn, `C[C@H](N)C(=O)OC[C@@H]1CCCN1c1cccc2c1C(=O)c1ccccc1C2=O` [Example 121, [(2S)-1-(9,10-dioxoanthryl)pyrrolidin-2-yl]methyl (2S)-2-amino-propanoate trifluoroacetate] had an IC50 of 22 µM.

Turning to `NCC(=O)OCCN1CCN(c2cccc3c2C(=O)c2ccccc2C3=O)CC1` [Example 107, 2-[4-(9,10-dioxoanthryl)piperazinyl]ethyl 2-aminoacetate bis-trifluoroacetate], 24 µM corresponded to half-maximal inhibition (IC50). The IC50 values of the last two compounds are within 1.5-fold of each other.

The compound `C[C@@H](N)C(=O)OCCc1ccc(Nc2cccc3c2C(=O)c2ccccc2C3=O)cc1` [Example 105] had an IC50 of 3.4 µM.

`CC(C)(COC(=O)CN)Nc1cccc2c1C(=O)c1ccccc1C2=O` [Example 97, 2-[(9,10-dioxoanthryl)amino]-2-methylpropyl 2-aminoacetate trifluoro-acetate] displayed an IC50 of 15 µM. This IC50 lies about 4.4-fold higher than the previous one.

The same data set, now with this note: Mus musculus, MAC15A, 96 h, 96 hours continuous exposure.
`C[C@H](N)C(=O)OCCOCCNc1cccc2c1C(=O)c1ccccc1C2=O` [Example 109, 1-[2-(2-{L-alanyloxy}ethoxy)ethylamino]anthracene-9,10-dione tri-fluoroacetate]: the IC50 amounted to 11.5 µM.

Take `CC(C)[C@H](N)C(=O)OCCCNc1ccc(O)c2c1C(=O)c1ccccc1C2=O` [Example 51, 4-hydroxy-1-[3-(L-valyloxy)propylamino]anthracene-9,10-dione tri-fluoroacetate]: half-maximal inhibition (IC50) required 4.9 µM.

Regarding `COc1ccc(C[C@H](N)C(=O)OCCCNc2cccc3c2C(=O)c2ccccc2C3=O)cc1` [Example 79, 1-[3-(O-methyl-L-tyrosyloxy)propylamino]anthracene-9,10dione tri-fluoroacetate], the IC50 was found to be 3.5 µM. The IC50 values of the last two compounds are within 1.5-fold of each other.

As to `C[C@@H](N)C(=O)OCCOCCNc1cccc2c1C(=O)c1ccccc1C2=O` [Example 111, 1-[2-(2-{D-alanyloxy}ethoxy)ethylamino]anthracene-9,10-dione tri-fluoroacetate], half-maximal inhibition (IC50) was put at 24 µM. Compared with the last compound, the IC50 is about 6.9-fold higher.

Staying with this data set, now noted: Mus musculus, MAC15A, 96 hours continuous exposure.
The compound `N[C@@H](C(=O)OCCCNc1cccc2c1C(=O)c1ccccc1C2=O)c1ccccc1` [Example 75, 1-[3-(D-phenylglycyloxy)propylamino]anthracene-9, 10dione trifluoro-acetate] yielded an IC50 of 4.2 µM.

Turning to `CCCC(=O)OCCCCNc1cccc2c1C(=O)c1ccccc1C2=O` [Example 89, 1-[4-(butanoyloxy)butylamino]anthracene-9,10-dione trifluoroacetate], the IC50 is 4.5 µM.

`N[C@H](Cc1ccccc1)C(=O)OCCOCCNc1cccc2c1C(=O)c1ccccc1C2=O` [Example 115, 1-{2-(2-[D-phenylalanyloxy]ethoxy)ethylamino}anthracene-9,10-dione trifluoroacetate] showed an IC50 of 12 µM.

In turn, `CN[C@@H](C)C(=O)OCCCCNc1cccc2c1C(=O)c1ccccc1C2=O` [Example 85, 1-[4-(methylalanyloxy)butylamino]anthracene-9,10-dione trifluoro-acetate] came in with a 50% inhibitory concentration (IC50) of 3.2 µM.

Compound `C[C@@H](N)C(=O)OCCCCCNc1cccc2c1C(=O)c1ccccc1C2=O` [Example 95, 1-[5-(D-alanyloxy)pentylamino]anthracene-9,10-dione trifluoroacetate] registered an IC50 of 3.1 µM.

In turn, `N[C@H](C(=O)OCCCNc1cccc2c1C(=O)c1ccccc1C2=O)c1ccccc1` [Example 73, 1-[3-(L-phenylglycyloxy)propylamino]anthracene-9,10dione trifluoro-acetate] came in with a concentration for half-maximal inhibition (IC50) of 5 µM.

`C[C@H](N)C(=O)OCCCCCNc1cccc2c1C(=O)c1ccccc1C2=O` [Example 93, 1-[5-(L-alanyloxy)pentylamino]anthracene-9,10-dione trifluoroacetate] showed an IC50 of 3.5 µM.

For `NCC(=O)NCC(=O)OCCCNc1cccc2c1C(=O)c1ccccc1C2=O` [Example 129, 1-[3-(glycylglycyloxy)propylamino]anthracene-9,10-dione trifluoro-acetate], 4 µM corresponded to half-maximal inhibition (IC50).

In turn, `N[C@@H](Cc1ccccc1)C(=O)OCCCNc1cccc2c1C(=O)c1ccccc1C2=O` [Example 39, 1-[3-(L-phenylalanyloxy)propylamino]anthracene-9,10-dione trifluoro-acetate] registered an IC50 of 3 µM.

In turn, `C[C@H](N)C(=O)OCCNc1cccc2c1C(=O)c1ccccc1C2=O` [Example 23, 1-[2-(L-alanyloxy)ethylamino]anthracene-9,10-dione trifluoroacetate] gave an IC50 of 7.5 µM.

As for `N[C@@H](Cc1c[nH]c2ccccc12)C(=O)OCCCCCONc1cccc2c1C(=O)c1ccccc1C2=O` [Example 77, 1-[5-(L-tryptophyloxy)pentoxyamino]anthracene-9,10-dione trifluoro-acetate], inhibition was half-maximal at 5.5 µM (IC50).

Turning to `CC(C)[C@H](N)C(=O)OCCNc1cccc2c1C(=O)c1ccccc1C2=O` [Example 25, 1-[2-(L-valyloxy)ethylamino]anthracene-9,10-dione trifluoroacetate], half-maximal inhibition (IC50) was put at 30 µM.

In turn, `N[C@@H](Cc1ccccc1)C(=O)OCCOCCNc1cccc2c1C(=O)c1ccccc1C2=O` [Example 113, 1-[2-(2-{L-phenylalanyloxy}ethoxy)ethylamino]anthracene-9,10-dione trifluoroacetate] displayed an IC50 of 7 µM. Against the preceding compound, the IC50 is about 4.3-fold lower.

Consider `NCC(=O)OCCCCNc1cccc2c1C(=O)c1ccccc1C2=O` [Example 81, 1-[4-(glycyloxy)butylamino]anthracene-9,10-dione trifluoroacetate], for which half-maximal inhibition (IC50) was put at 9.4 µM.

As to `CC(C)[C@@H](N)C(=O)OCCNc1cccc2c1C(=O)c1ccccc1C2=O` [Example 27, 1-[2-(D-valyloxy)ethylamino]anthracene-9,10-dione trifluoroacetate], half-maximal inhibition (IC50) was put at 14 µM.

A word on the melting point: it is the temperature, or range, at which the solid turns liquid. One may read the IC50 as the concentration at which inhibition is half-maximal. The low end stands for inhibition by little substance, the high end for a need for much substance.
